Values after ≈ are worked out from the molar mass of the structure shown. Values joined by “and” are separate entries in the source; they are usually repeats but may differ in a detail not shown here. Equal values may be shown once. Read-outs that look alike come from different tables or passages of the source.
Key:
HeLa cells = assay: Mammalian cell cytotoxicity (CC50); format: cell-based, human; conditions: for NORMALIZED DATA (Fraction DMSO Control) / […] (Fraction DMSO Control): HeLa, per replicate
Protocol: (§1) The half maximal cytotoxic concentration (CC50) of each compound against HeLa cells (ATCC CCL-2) was measured as previously described. […] The mean values for each biological replicate were averaged, and the CC50 was determined using a 4-parameter nonlinear curve fitting algorithm (GraphPad Prism). The average of the CC50s from two biological replicates was calculated and reported.

[1] = Mammalian cell cytotoxicity (CC50); format: cell-based, human; conditions: human, HeLa cells (ATCC CCL-2)
Protocol: as §1

trans-translation = assay: In vitro trans-translation assay (S12 extract, nanoluc-ns, tmRNA-nl); format: biochemical, Escherichia coli; set-up: background subtraction: unit not given here; conditions: for normalized: activity, 0 = 100
From the text: The in vitro trans-translation assay is designed to produce the first 157 amino acids of nano-luciferase from a non-stop mRNA (nanoluc-ns) and add the C-terminal peptide […] via a mutant version of E. coli tmRNA (tmRNA-nl) to reconstitute an active nano-luciferase[45]. In this assay, the tagged nano-luciferase gene has >30,000-fold increase in activity over the peptide made in the absence of tmRNA-nl.
S12 lysates were made according to the procedure of Kim, et al.[46]. Briefly, a culture of E. coli BL21 (DE3) cells containing a pET28 plasmid carrying the E. coli T7 polymerase gene was grown at 37 °C to an OD600 = 0.8, induced with 1 mM IPTG and grown for an additional 3 h. Cells were harvested by centrifugation at 20,000 × g for 10 min at 4 °C and the pellet was resuspended in buffer A (20 mM Tris-acetate (pH 8.2), 14 mM Mg(OAc)2, 60 mM potassium glutamate, 1 mM DTT). Cells were lysed by sonication, the lysate was clarified by centrifugation at 12,000 × g for 10 min, and the supernatant was stored at −80 °C.
E. coli SmpB was purified as previously described. tmRNA-nl, a variant of E. coli tmRNA encoding the final 11 residues of nano-luciferase, was transcribed from the tmRNA-nl synthetic DNA sequence in vitro, purified, and folded as previously described for wild-type E. coli tmRNA[3]. The nanoluc-stop template DNA was prepared as previously described[3] by PCR amplification from pMC1 using T7 universal and nanoluc-stop primers. The nanoluc-ns was prepared in a similar manner using pMC1 with T7 universal and nanoluc-ns primers.
For in vitro trans-translation, tmRNA-nl and SmpB were premixed and stored on ice. S12 lysate (2 μl), freshly made polymix buffer (2 μl)[47] (final reaction concentrations 5 mM Hepes pH 7.6, 5 mM NH4Cl, 0.5 mM CaCl2, 1.5 mm MgCl2, 1 mM DTT, 8 mm putrescene, 2 mm ATP, 2 mM GTP, 1 mM CTP, 1 mM UTP, 0.3 mM each amino acid, 3 mg/ml E. coli tRNAs), nanoluc-ns template (0.5 μl; 60 ng) and 2 µl water were mixed and incubated at 37 °C for 5 min. This solution was dispensed to tubes containing 0.5 μl of different concentrations of an inhibitor prepared in 75% acetonitrile, 25% water, and incubated at 37 °C for 5 min. The tmRNA-nl/SmpB mixture (0.5 μl each, 2 μM final) was added to each tube and the samples were incubated at 37 °C for 1.5 h. NanoLuc substrate (Promega) was prepared according to the manufacturer’s instructions, one volume of this substrate solution was added to each sample tube, and the reactions transferred to a white 96-well plate. Luminescence readings were obtained using the SpectraMax i3 microplate reader. Data analysis was performed using GraphPad Prism 8.

[2] = Serum protein binding, murine; format: in vitro ADME, mouse; conditions: Eurofins; for fraction unbound: mouse, serum, read-out: Serum binding (% bound) Murine (converted)
Protocol: Serum protein binding was determined using an equilibrium dialysis method as described. The amount of compound in each chamber (buffer and serum) was measured using methods for reverse-phase liquid chromatography/mass spectroscopy methods that were customized for each compound.

[3] = Aqueous solubility (nephelometric); format: physicochemical; conditions: aqueous solution (buffer not named); single replicates
[4] = HeLa cytotoxicity, value per replicate

SMILES: O=C(Nc1nnc(-c2ccc(F)cc2)o1)N1CCc2ccccc2C1 [MBX-4132]
- CC50 (HeLa cells; [4]): 40.1 µM and 36.3 µM and 20.1 µM and 22.1 µM and 22.6 µM
- NORMALIZED DATA (Fraction DMSO Control) (HeLa cells; [CMPD] 0.78125 µM): 0.9968 Fraction DMSO Control and 1.046 Fraction DMSO Control and 1.033 Fraction DMSO Control and 0.9287 Fraction DMSO Control and 0.9308 Fraction DMSO Control and 0.9008 Fraction DMSO Control
- NORMALIZED DATA (Fraction DMSO Control) (HeLa cells; [CMPD] 1.5625 µM): 0.97 Fraction DMSO Control and 0.9994 Fraction DMSO Control and 0.9978 Fraction DMSO Control and 0.9354 Fraction DMSO Control and 0.9201 Fraction DMSO Control and 0.9227 Fraction DMSO Control
- NORMALIZED DATA (Fraction DMSO Control) (HeLa cells; [CMPD] 3.125 µM): 0.9272 Fraction DMSO Control and 0.9885 Fraction DMSO Control and 0.9744 Fraction DMSO Control and 0.9295 Fraction DMSO Control and 0.9174 Fraction DMSO Control and 0.8829 Fraction DMSO Control
- NORMALIZED DATA (Fraction DMSO Control) (HeLa cells; [CMPD] 6.25 µM): 0.9057 Fraction DMSO Control and 0.9944 Fraction DMSO Control and 0.9769 Fraction DMSO Control and 0.8719 Fraction DMSO Control and 0.9166 Fraction DMSO Control and 0.9146 Fraction DMSO Control
- NORMALIZED DATA (Fraction DMSO Control) (HeLa cells; [CMPD] 12.5 µM): 0.7347 Fraction DMSO Control and 0.9472 Fraction DMSO Control and 1.04 Fraction DMSO Control and 0.6999 Fraction DMSO Control and 0.7003 Fraction DMSO Control and 0.7354 Fraction DMSO Control
- NORMALIZED DATA (Fraction DMSO Control) (HeLa cells; [CMPD] 25 µM): 0.4205 Fraction DMSO Control and 0.7028 Fraction DMSO Control and 0.4452 Fraction DMSO Control and 0.4899 Fraction DMSO Control and 0.486 Fraction DMSO Control
- […] (Fraction DMSO Control) (HeLa cells; [CMPD] 25 µM): 0.7319 Fraction DMSO Control
- NORMALIZED DATA (Fraction DMSO Control) (HeLa cells; [CMPD] 50 µM): 0.4043 Fraction DMSO Control and 0.3802 Fraction DMSO Control and 0.2112 Fraction DMSO Control and 0.1979 Fraction DMSO Control
- […] (Fraction DMSO Control) (HeLa cells; [CMPD] 50 µM): 0.2642 Fraction DMSO Control and 0.1957 Fraction DMSO Control
- NORMALIZED DATA (Fraction DMSO Control) (HeLa cells; [CMPD] 100 µM): 0.2429 Fraction DMSO Control and 0.2248 Fraction DMSO Control and 0.2297 Fraction DMSO Control
- […] (Fraction DMSO Control) (HeLa cells; [CMPD] 100 µM): 0.1038 Fraction DMSO Control and 0.3131 Fraction DMSO Control and 0.2661 Fraction DMSO Control
- CC50 [1, 4]: 22.2 µM
- CC50 ([1]; half-maximal cytotoxic concentration against HeLa cells): 45 µM
- normalized (trans-translation; [4132] 0.01): 102.817 and 102.626 and 90.8451
- background subtraction (trans-translation; [4132] 0.05): 284
- raw luminescence read (rlu) (trans-translation; [4132] 0.05): 319 rlu
- normalized (trans-translation; [4132] 0.05): 66.6667
- background subtraction (trans-translation; [4132] 0.1): 337 and 425 and 284
- raw luminescence read (rlu) (trans-translation; [4132] 0.1): 443 rlu and 372 rlu and 319 rlu
- normalized (trans-translation; [4132] 0.1): 59.331 and 41.3424 and 66.6667
- background subtraction (trans-translation; [4132] 0.5): 266 and 178
- raw luminescence read (rlu) (trans-translation; [4132] 0.5): 301 rlu and 213 rlu
- normalized (trans-translation; [4132] 0.5): 46.831 and 41.784
- background subtraction (trans-translation; [4132] 1): 213 and 266 and 426
- raw luminescence read (rlu) (trans-translation; [4132] 1): 248 rlu and 284 rlu and 461 rlu
- background subtraction (trans-translation; [4132] 2): 302 and 230
- raw luminescence read (rlu) (trans-translation; [4132] 2): 337 rlu and 248 rlu
- IC50 (trans-translation; in vitro reconstituted assay): 400 nM
- Serum binding (% bound) Murine ([2]; Replicate 1/2): 99.9% and 95.5%
- fraction unbound ([2]; Average Value): 0.023
- fraction unbound ([2]; Reported value): 0.02
- Solubility [3]: 100 µM (≈ 33.8 µg/mL)
